pIC50: −log10 of the molar value.
Test system: fulvestrant-resistant MCF7:5C-FR cells
Experiment: Fulvestrant-resistant breast cancer cell viability (cell proliferation) assay
Type: cell-based
Conditions: growth inhibition in fulvestrant-resistant MCF-7:CFR cells, 120 hrs
How it was run: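 Cells were treated the day after seeding with compounds at 3 nM to 10 uM for 120 h, with 0.1% DMSO vehicle and 1 uM JQ1 as positive control. Hoechst 33342-stained (5 μg/ml, 90 min, 37 C) nuclei were imaged and counted, and cell numbers normalized to vehicle.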

| pIC50 (120 h) | pIC50 | Structure (SMILES) |
| --- | --- | --- |
| < 7.00 | – | CCN(C(=O)C1COC1)c1cc(-c2cn(C)c3c(=O)[nH]ccc23)cc2c1ccn2Cc1c(C)cccc1C [Compound 77, N-(1-(2,6-dimethylbenzyl)-6-(7-hydroxy-1-methyl-1H-pyrrolo[2,3-c]pyridin-3-yl)-1H-indol-4-yl)-N-ethyloxetane-3-carboxamide] |
| < 7.00 | – | CCC(=O)N(c1cc(-c2cn(C)c3c(=O)[nH]ccc23)cc2c1ccn2Cc1c(C)cccc1Cl)C1CC1 [Compound 78, N-(1-(2-chloro-6-methylbenzyl)-6-(7-hydroxy-1-methyl-1H-pyrrolo[2,3-c]pyridin-3-yl)-1H-indol-4-yl)-N-cyclopropylpropionamide] |
| < 7.00 | – | CS(=O)(=O)Nc1cc(-c2cn(CCCl)c3c(O)nccc23)cc2c1ccn2Cc1ccc(F)cc1 [Compound 79, N-(6-(1-(2-chloroethyl)-7-hydroxy-1H-pyrrolo[2,3-c]pyridin-3-yl)-1-(4-fluorobenzyl)-1H-indol-4-yl)methanesulfonamide] |
| < 7.00 | – | CCS(=O)(=O)Nc1cc(-c2cn(CCCl)c3c(O)nccc23)cc2c1ccn2Cc1ccc(F)cc1 [Compound 80, N-(6-(1-(2-chloroethyl)-7-hydroxy-1H-pyrrolo[2,3-c]pyridin-3-yl)-1-(4-fluorobenzyl)-1H-indol-4-yl)ethanesulfonamide] |
| < 7.00 | – | CCS(=O)(=O)Nc1cc(-c2cn(CCCl)c3c(O)nccc23)cc2c1ccn2Cc1ccc(F)cc1C [Compound 81, N-(6-(1-(2-chloroethyl)-7-hydroxy-1H-pyrrolo[2,3-c]pyridin-3-yl)-1-(4-fluoro-2-methylbenzyl)-1H-indol-4-yl)ethanesulfonamide] |
| < 6.00 | – | CCS(=O)(=O)Nc1cc(-c2cn(CCCl)c3c(O)nccc23)cc2c1ccn2Cc1ccc(F)cc1Cl [Compound 82, N-(1-(2-chloro-4-fluorobenzyl)-6-(1-(2-chloroethyl)-7-hydroxy-1H-pyrrolo[2,3-c]pyridin-3-yl)-1H-indol-4-yl)ethanesulfonamide] |
| < 6.00 | – | CCS(=O)(=O)Nc1cc(-c2cn(CCCl)c3c(O)nccc23)cc2c1ccn2Cc1c(C)cc(F)cc1C [Compound 83, N-(6-(1-(2-chloroethyl)-7-hydroxy-1H-pyrrolo[2,3-c]pyridin-3-yl)-1-(4-fluoro-2,6-dimethylbenzyl)-1H-indol-4-yl)ethanesulfonamide] |
| – | > 6.00 | CCS(=O)(=O)Nc1cc(-c2cn(CCCl)c3c(O)nccc23)cc2c1ccn2Cc1c(C)cccc1C [Compound 84, N-(6-(1-(2-chloroethyl)-7-hydroxy-1H-pyrrolo[2,3-c]pyridin-3-yl)-1-(2,6-dimethylbenzyl)-1H-indol-4-yl)ethanesulfonamide] |
| > 6.00 | – | CCS(=O)(=O)Nc1cc(-c2cn(CCCl)c3c(O)nccc23)cc2c1ccn2Cc1ccc(F)cc1F [Compound 85, N-(6-(1-(2-chloroethyl)-7-hydroxy-1H-pyrrolo[2,3-c]pyridin-3-yl)-1-(2,4-difluorobenzyl)-1H-indol-4-yl)ethanesulfonamide] |
| > 6.00 | – | CCS(=O)(=O)Nc1cc(-c2cn(CCCl)c3c(O)nccc23)cc2c1ccn2Cc1ccc(C#N)cc1 [Compound 86, N-(6-(1-(2-chloroethyl)-7-hydroxy-1H-pyrrolo[2,3-c]pyridin-3-yl)-1-(4-cyanobenzyl)-1H-indol-4-yl)ethanesulfonamide] |
| > 6.00 | – | CCS(=O)(=O)Nc1cc(-c2cn(CCCl)c3c(O)nccc23)cc2c1ccn2Cc1ccc(Cl)c(Cl)c1 [Compound 87, N-(6-(1-(2-chloroethyl)-7-hydroxy-1H-pyrrolo[2,3-c]pyridin-3-yl)-1-(3,4-dichlorobenzyl)-1H-indol-4-yl)ethanesulfonamide] |
| > 6.00 | – | C=CC(=O)Cn1cc(-c2cc(NS(C)(=O)=O)c3ccn(Cc4ccc(F)cc4)c3c2)c2ccnc(O)c21 [Compound 88, N-(1-(4-fluorobenzyl)-6-(7-hydroxy-1-(2-oxobut-3-en-1-yl)-1H-pyrrolo[2,3-c]pyridin-3-yl)-1H-indol-4-yl)methanesulfonamide] |
| > 6.00 | – | CS(=O)(=O)Nc1cc(-c2cn(CC3CO3)c3c(O)nccc23)cc2c1ccn2Cc1ccc(F)cc1 (stereo not shown) [Compound 89, N-(1-(4-fluorobenzyl)-6-(7-hydroxy-1-(oxiran-2-ylmethyl)-1H-pyrrolo[2,3-c]pyridin-3-yl)-1H-indol-4-yl)methanesulfonamide] |
| > 6.00 | – | CS(=O)(=O)Nc1cc(-c2cn(CC(=O)CCl)c3c(O)nccc23)cc2c1ccn2Cc1ccc(F)cc1 [Compound 90, N-(6-(1-(3-chloro-2-oxopropyl)-7-hydroxy-1H-pyrrolo[2,3-c]pyridin-3-yl)-1-(4-fluorobenzyl)-1H-indol-4-yl)methanesulfonamide] |
| > 6.00 | – | CCS(=O)(=O)Nc1cc(-c2cn(C)c3c(O)nccc23)cc2c1ccn2[C@H](c1ccccc1)C1CCOCC1 [Compound 91, (S)-N-(6-(7-hydroxy-1-methyl-1H-pyrrolo[2,3-c]pyridin-3-yl)-1-(phenyl(tetrahydro-2H-pyran-4-yl)methyl)-1H-indol-4-yl)ethanesulfonamide] |
| > 6.00 | – | CCS(=O)(=O)Nc1cc(-c2cn(C)c3c(O)nccc23)cc2c1ccn2[C@@H](c1ccccc1)C1CCOCC1 [Compound 92, (R)-N-(6-(7-hydroxy-1-methyl-1H-pyrrolo[2,3-c]pyridin-3-yl)-1-(phenyl(tetrahydro-2H-pyran-4-yl)methyl)-1H-indol-4-yl)ethanesulfonamide] |
| < 7.00 | – | CCS(=O)(=O)Nc1cc(-c2cn(CCCl)c3c(O)nccc23)cc2c1ccn2Cc1ccccc1 [Compound 95, N-(1-benzyl-6-(1-(2-chloroethyl)-7-hydroxy-1H-pyrrolo[2,3-c]pyridin-3-yl)-1H-indol-4-yl)ethanesulfonamide] |
| – | < 7.00 | CCS(=O)(=O)Nc1cc(-c2cn(CCCl)c3c(O)nccc23)cc2c1ccn2Cc1c(C)cccc1C [Compound 96, N-(6-(1-(2-chloroethyl)-7-hydroxy-1H-pyrrolo[2,3-c]pyridin-3-yl)-1-(2,6-dimethylbenzyl)-1H-indol-4-yl)ethanesulfonamide] |
| < 7.00 | – | C=CC(=O)Cn1cc(-c2cc(NS(C)(=O)=O)c3ccn(Cc4ccccc4)c3c2)c2ccnc(O)c21 [Compound 97, N-(1-benzyl-6-(7-hydroxy-1-(2-oxobut-3-en-1-yl)-1H-pyrrolo[2,3-c]pyridin-3-yl)-1H-indol-4-yl)methanesulfonamide] |
| > 6.00 | – | CS(=O)(=O)Nc1cc(-c2cn(CC3CO3)c3c(O)nccc23)cc2c1ccn2Cc1ccccc1 (stereo not shown) [Compound 98, N-(1-benzyl-6-(7-hydroxy-1-(oxiran-2-ylmethyl)-1H-pyrrolo[2,3-c]pyridin-3-yl)-1H-indol-4-yl)methanesulfonamide] |
| > 6.00 | – | CS(=O)(=O)Nc1cc(-c2cn(CC(=O)CCl)c3c(O)nccc23)cc2c1ccn2Cc1ccccc1 [Compound 99, N-(1-benzyl-6-(1-(3-chloro-2-oxopropyl)-7-hydroxy-1H-pyrrolo[2,3-c]pyridin-3-yl)-1H-indol-4-yl)methanesulfonamide] |
| > 6.00 | – | Cn1cc(-c2cc(NS(C)(=O)=O)c3ccn(Cc4cccc(F)c4)c3c2)c2cc[nH]c(=O)c21 [Compound 100, N-(1-(3-fluorobenzyl)-6-(1-methyl-7-oxo-6,7-dihydro-1H-pyrrolo[2,3-c]pyridin-3-yl)-1H-indol-4-yl)methanesulfonamide] |

— patent publication US11840533B2, “Pyridinone-based epigenetic modifiers and uses thereof” (THE BOARD OF TRUSTEES OF THE UNIVERSITY OF ILLINOIS, priority 2017, dated 2023)
